Measurements reported in patent US12594255B2, “Lipids with odd number of carbon atoms and their use as pharmaceutical composition or nutritional supplement” (SunRegen Healthcare AG, priority 2016, dated 2026).

Key:
[1] = Solubility of compound C in stock solutions; assay type: physicochemical
[2] = system: mouse primary cortical neurons; assay: Axonal growth (MAP2 immunolabelling, axonal length); assay type: cell-based; conditions: vehicle control 165.96±90.18 μm
Experimental: Mouse primary cortical neurons were pre-incubated for 48 h with vehicle, 60 nM sAPPα (used as positive control) or different concentrations of Compound C. Then, cortical neurons were treated for 24 h with vehicle. Data are represented as % of vehicle control (Mean±SD).
Cortical neurons from embryonic day 16-17 are prepared from C57Bl6/J mouse fetuses, as described in Example I-1. After 96-h incubation, axonal length is recorded. Briefly, cells were washed with ice-cold PBS and fixed with cold methanol. Following fixation, cells are immunolabelled using a specific antibody detecting total MAP2 protein. Antibodies to MAP2 are excellent markers on neuronal cells, their axons and neuronal dendrites. For quantification of axonal length, six independent images of labelled cells are captured using an inverted microscope. Pictures of cells are analyzed using Neuron-J software and axonal length is recorded manually. A minimum of 100 independent neurons are treated. The data are expressed as mean axonal length (expressed in μm) (Mean±SD). Statistical differences between vehicle-treated cells and cells treated with compounds are determined using a t-test.

With `CCCCCCCCCCCCCCC(=O)OCC(COC(=O)CCCCCCCCCCCCCC)OC(=O)CCCCCCCCCCCCCC` [Compound C, tripentadecanoin] the “solubility in stock solutions” value [1] was “not fully soluble”, the “neuronal axon outgrowth (mean axonal length)” value ([2]; 1000 nM) was 199.93±101.17 μm and the “neuronal axon outgrowth (mean axonal length)” value ([2]; 10000 nM) was 304.27±149.60 μm.
